The values below come from ChEMBL document CHEMBL1201862, “PubChem BioAssay data set” (2004).

Each structure is given as a SMILES string.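 Where inhibition never reached the appropriate level, the endpoint shown equals the highest concentration tested. Otherwise, values were interpolated linearly from a five-concentration, 48-hour dose response in 96-well plates. The concentration for 50% growth inhibition is given as GI50.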 The source made the active and inactive calls. Cut-off read from the data, not from the text of the source: active = GI50 up to about 1.1 µM and inactive = higher. Some results are limits rather than exact numbers.

Among the test systems are A498; CCRF-CEM; DU-145; K562; KM12; M14; MCF7; MDA-N; MOLT-4; PC-3; RPMI-8226; RXF 393; SF-268; SK-MEL-5; SW-620; TK-10; Hs-578T; SK-MEL-2; SK-OV-3.
What all share (test): NCI anticancer screen, dose series, 48 h

Turning to `CC(=O)c1ccc(N2CCN(C3=C(Cl)C(=O)c4c(O)ccc(O)c4C3=O)CC2)cc1`, the GI50 with A498 was 17.6 µM (inactive); in the assay with CCRF-CEM it was 0.417 µM (active); in the assay with DU-145, 17.1 µM (inactive); with K562, 2.09 µM (inactive); with KM12, 10 µM (inactive); in the assay on M14 it was 2.21 µM (inactive). Moreover, the GI50 with MCF7 is 1.49 µM (inactive); in the assay on MDA-N, 3.24 µM (inactive); in the assay on MOLT-4, 1.68 µM (inactive); with PC-3 it was 5.64 µM (inactive); in the assay with RPMI-8226 it was 2.86 µM (inactive); with RXF 393 it was 3.02 µM (inactive). In addition, the GI50 in the assay with SF-268 was 3.1 µM (inactive); in the assay with SK-MEL-5, 5.73 µM (inactive); in the assay with SW-620 it was 3.02 µM (inactive); in the assay with TK-10, 5.14 µM (inactive).
On to `O=C1CCSSCCC(=O)Nc2ccccc2N1`, for which the GI50 with A498 was > 100 µM (inactive); in the assay with CCRF-CEM it was > 100 µM (inactive); with DU-145, > 100 µM (inactive); with Hs-578T it was > 100 µM (inactive); in the assay with K562, 53.5 µM (inactive); in the assay on KM12, > 100 µM (inactive). Besides, the GI50 is > 100 µM (inactive) in the assay with M14; 34 µM (inactive) in the assay with MOLT-4; > 100 µM (inactive) in the assay with PC-3; > 100 µM (inactive) with RPMI-8226; > 100 µM (inactive) with RXF 393; > 100 µM (inactive) with SF-268. Moreover, the GI50 in the assay with SK-MEL-2, with SK-MEL-5, in the assay on SK-OV-3, with SW-620 and with TK-10 was > 100 µM (inactive) throughout.
On to `CO[C@H](c1ccccc1)[C@H](O)[C@](O)(c1ccccc1)P(=O)(OC)OC`, for which the GI50 in the assay with A498, in the assay with CCRF-CEM, in the assay with DU-145, in the assay on K562, in the assay with KM12 and in the assay on M14 was > 100 µM (inactive) throughout. Also, the GI50 in the assay on MDA-N, in the assay with MOLT-4, with PC-3, with RPMI-8226, in the assay with RXF 393 and in the assay with SF-268 was > 100 µM (inactive) in each case. In addition, the GI50 with SK-MEL-2, in the assay on SK-MEL-5, in the assay on SK-OV-3, in the assay on SW-620 and in the assay with TK-10 was > 100 µM (inactive) throughout.
For the compound `CN(C)C(=S)/N=c1\ss/c(=N\C(=S)N(C)C)n1-c1ccc2c(c1)OCO2`, the GI50 in the assay on A498 was > 100 µM (inactive); in the assay with K562, 4.86 µM (inactive); in the assay on KM12 it was > 100 µM (inactive); with M14 it was > 100 µM (inactive); in the assay with RXF 393 it was > 100 µM (inactive); in the assay with SF-268, > 100 µM (inactive). Further, the GI50 in the assay on SK-MEL-2, in the assay with SK-MEL-5, with SK-OV-3, in the assay on SW-620 and in the assay with TK-10 was > 100 µM (inactive) throughout.
Consider `COC(=O)C(CC(=O)c1c[nH]c2ccccc12)c1c[nH]c2ccccc12` (stereo not given), for which the GI50 in the assay with A498 is 20.3 µM (inactive); in the assay on CCRF-CEM it was 17.9 µM (inactive); with K562, 18.1 µM (inactive); with KM12 it was > 10 µM (inactive); with M14 it was 18.2 µM (inactive); in the assay with MOLT-4, 16.2 µM (inactive). The GI50 with RPMI-8226 was 11.5 µM (inactive); in the assay with RXF 393 it was 14 µM (inactive); in the assay on SK-MEL-2 it was 20.1 µM (inactive); in the assay with SK-MEL-5 it was 16.4 µM (inactive); in the assay on SK-OV-3, 41.9 µM (inactive); in the assay with SW-620, 22.8 µM (inactive). Besides, the GI50 in the assay on TK-10 is 31.2 µM (inactive).
Regarding `Cc1ccc(S(=O)(=O)NC(=O)NC(Cc2ccc(O)cc2)C(=O)O)cc1` (stereo not given), the GI50 with CCRF-CEM, with DU-145, with Hs-578T, in the assay on K562, with KM12 and in the assay with M14 was > 100 µM (inactive) in each case. Besides, the GI50 in the assay with MDA-N, with MOLT-4, in the assay with PC-3, in the assay on RPMI-8226, in the assay with RXF 393 and in the assay on SF-268 was > 100 µM (inactive) in each case. The GI50 in the assay on SK-MEL-2, in the assay on SK-MEL-5, with SK-OV-3, in the assay with SW-620 and in the assay on TK-10 was > 100 µM (inactive) throughout.
In the case of `COc1cc2nc(-c3cccs3)nc(Nc3cccc([N+](=O)[O-])c3)c2cc1OC`, the GI50 in the assay on A498 was > 100 µM (inactive); with CCRF-CEM it was 31.5 µM (inactive); with DU-145, 16.3 µM (inactive); in the assay with Hs-578T it was 26.9 µM (inactive); with K562 it was 39 µM (inactive); in the assay with KM12, 17.9 µM (inactive). In addition, the GI50 was 17 µM (inactive) in the assay on M14; 24.9 µM (inactive) in the assay with MCF7; 24.9 µM (inactive) in the assay on MOLT-4; 19.6 µM (inactive) in the assay on PC-3; 28.1 µM (inactive) in the assay on RPMI-8226; 25.9 µM (inactive) with RXF 393. Further, the GI50 was 20.3 µM (inactive) in the assay on SF-268; 20.7 µM (inactive) in the assay on SK-MEL-2; 29.2 µM (inactive) in the assay with SK-MEL-5; 20.3 µM (inactive) in the assay on SK-OV-3; 24.2 µM (inactive) in the assay on SW-620; 20.8 µM (inactive) with TK-10.
For `COc1ccc2c(c1)O[C@@H]1[C@@H](OC3OC(CO)C(O)C(O)C3O)Oc3cc(OC)c(OC)cc3[C@]1(O)C2=O` (stereo not given in full), the GI50 in the assay on A498, in the assay on CCRF-CEM, with DU-145, in the assay with Hs-578T, in the assay with K562 and in the assay with KM12 was > 100 µM (inactive) in each case. In addition, the GI50 with M14, with MDA-N, with MOLT-4, with PC-3, in the assay with RPMI-8226 and with RXF 393 was > 100 µM (inactive) throughout. Also, the GI50 in the assay with SF-268 was > 100 µM (inactive); with SK-MEL-2 it was > 100 µM (inactive); in the assay on SK-MEL-5, > 100 µM (inactive); in the assay with SK-OV-3, > 100 µM (inactive); in the assay on SW-620 it was 17.5 µM (inactive); in the assay with TK-10 it was > 100 µM (inactive).
On to `COc1ccccc1N1CCN(CCCNC(=O)c2cc(Cl)c(N)c(Cl)c2)CC1`, for which the GI50 in the assay on A498 was 42 µM (inactive); in the assay on CCRF-CEM, 29.7 µM (inactive); in the assay with DU-145, 88.1 µM (inactive); in the assay on Hs-578T, 67.1 µM (inactive); in the assay on KM12 it was 26.9 µM (inactive); in the assay with M14, 19.4 µM (inactive). For the same compound, the GI50 in the assay on MCF7 is 35.2 µM (inactive); in the assay on MOLT-4, 19.8 µM (inactive); in the assay with RPMI-8226, 18.7 µM (inactive); with RXF 393 it was 27 µM (inactive); with SF-268 it was 77.4 µM (inactive); in the assay on SK-MEL-5 it was 18.2 µM (inactive). The GI50 in the assay on SK-OV-3 was 69.8 µM (inactive); with SW-620, 37.5 µM (inactive); in the assay on TK-10, 54.2 µM (inactive).
Consider `CCCc1c(OC)c(=O)c2c(O)cc(OC)c3c4c(OC)cc(O)c5c(=O)c(OC)c(CCC)c(c1c23)c54`, for which the GI50 is 10.6 µM (inactive) in the assay with A498; 1.26 µM (inactive) in the assay with CCRF-CEM; 3.76 µM (inactive) with DU-145; 2.33 µM (inactive) with K562; 8.57 µM (inactive) in the assay with KM12; 2.05 µM (inactive) with M14. For the same compound, the GI50 was 3.43 µM (inactive) with MCF7; 4.05 µM (inactive) in the assay with MDA-N; 1.6 µM (inactive) in the assay with MOLT-4; 2.44 µM (inactive) in the assay with PC-3; 2.5 µM (inactive) in the assay on RPMI-8226; 5 µM (inactive) in the assay with SF-268. Moreover, the GI50 in the assay on SK-MEL-2 is 6.64 µM (inactive); in the assay with SK-MEL-5 it was 3.29 µM (inactive); with SK-OV-3, 9.77 µM (inactive); in the assay on SW-620, 3.15 µM (inactive); in the assay on TK-10, 44.7 µM (inactive).
For the compound `Cc1ccccc1C(C#N)C(=O)C(=O)Nc1cccc(Cl)c1` (stereo not given), the GI50 was > 100 µM (inactive) in the assay on A498; 39.4 µM (inactive) in the assay with CCRF-CEM; 32.2 µM (inactive) in the assay on K562; > 100 µM (inactive) in the assay on KM12; > 100 µM (inactive) with M14; > 100 µM (inactive) in the assay on MOLT-4. The GI50 in the assay on RPMI-8226 was 27.2 µM (inactive); in the assay with RXF 393 it was > 100 µM (inactive); in the assay on SF-268, > 100 µM (inactive); with SK-MEL-2 it was > 100 µM (inactive); in the assay with SK-MEL-5, > 100 µM (inactive); with SK-OV-3, > 100 µM (inactive). Further, the values for the GI50 in the assay on SW-620 and with TK-10 were 15.7 µM (inactive) and > 100 µM (inactive), respectively.
Regarding `CCN(CC)c1c(-c2c(OC(C)C)c(=O)c2=O)c(=O)n2ccsc2c1OC(C)=O`, the GI50 in the assay with A498 is > 100 µM (inactive); with CCRF-CEM, > 100 µM (inactive); in the assay with DU-145, > 100 µM (inactive); in the assay with Hs-578T, 17.8 µM (inactive); in the assay on K562, > 100 µM (inactive); in the assay on KM12, > 100 µM (inactive). Further, the GI50 with M14 is > 100 µM (inactive); with MDA-N, > 100 µM (inactive); in the assay on MOLT-4, > 100 µM (inactive); in the assay with PC-3, > 100 µM (inactive); in the assay on RPMI-8226 it was 34.8 µM (inactive); in the assay on SF-268 it was > 100 µM (inactive). Moreover, the GI50 in the assay with SK-MEL-2, with SK-MEL-5, in the assay with SK-OV-3, in the assay on SW-620 and with TK-10 was > 100 µM (inactive) each time.
